Results from ChEMBL document CHEMBL1150190, “Lyngbyatoxins B and C, two new irritants from Lyngbya majuscula” (J Nat Prod, 1990).

What was measured:
[1] = Displacement of [3H]12-O-tetradecanoyl-phorbol-13-acetate from TPA receptor
Mus musculus = organism: Mus musculus; assay: Toxicity in mouse by ear irritant test; type: organism-based; conditions: in vivo

Row | Structure (SMILES) | ED50 [1] [nM] | Activity (Mus musculus)
1 | C=C[C@@](C)(CCC(O)C(=C)C)c1ccc2c3c(c[nH]c13)C[C@@H](CO)NC(=O)[C@H](C(C)C)N2C (some centres undefined) [LYNGBYATOXI B] | 2200 | Toxic
2 | C=C[C@@](C)(C/C=C/C(C)(C)O)c1ccc2c3c(c[nH]c13)C[C@@H](CO)NC(=O)[C@H](C(C)C)N2C [LYNGBYATOXIN C] | 200 | Toxic
